What all share (assay): Kinase assay, binding constants (Kd), kinase-tagged T7 phage, qPCR
Assay [1] deals with FGFR1 (Homo sapiens (Human), UniProt P11362). The method in brief:
(§1)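 Using T7 phage lysates from BL21-derived E. coli, compounds at 0.9% final DMSO competed for kinase binding to ligand-bearing magnetic beads. After elution, qPCR measured remaining kinase, and Kds were fitted by non-linear least squares with the Hill slope fixed at −1.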

Assay [2] addresses FGFR2 (Homo sapiens (Human), UniProt P21802). An outline of the steps: as §1
In assay [3] the target is FGFR3 (Homo sapiens (Human), UniProt P22607). An outline of the steps:
as §1

For assay [4], the target named is FGFR3 (V555M) (Homo sapiens (Human), UniProt P22607, V555M). The settings on record: V555M mutant. The method in brief: as §1
Sequence of FGFR3 (V555M) (P22607 23-806 V555M): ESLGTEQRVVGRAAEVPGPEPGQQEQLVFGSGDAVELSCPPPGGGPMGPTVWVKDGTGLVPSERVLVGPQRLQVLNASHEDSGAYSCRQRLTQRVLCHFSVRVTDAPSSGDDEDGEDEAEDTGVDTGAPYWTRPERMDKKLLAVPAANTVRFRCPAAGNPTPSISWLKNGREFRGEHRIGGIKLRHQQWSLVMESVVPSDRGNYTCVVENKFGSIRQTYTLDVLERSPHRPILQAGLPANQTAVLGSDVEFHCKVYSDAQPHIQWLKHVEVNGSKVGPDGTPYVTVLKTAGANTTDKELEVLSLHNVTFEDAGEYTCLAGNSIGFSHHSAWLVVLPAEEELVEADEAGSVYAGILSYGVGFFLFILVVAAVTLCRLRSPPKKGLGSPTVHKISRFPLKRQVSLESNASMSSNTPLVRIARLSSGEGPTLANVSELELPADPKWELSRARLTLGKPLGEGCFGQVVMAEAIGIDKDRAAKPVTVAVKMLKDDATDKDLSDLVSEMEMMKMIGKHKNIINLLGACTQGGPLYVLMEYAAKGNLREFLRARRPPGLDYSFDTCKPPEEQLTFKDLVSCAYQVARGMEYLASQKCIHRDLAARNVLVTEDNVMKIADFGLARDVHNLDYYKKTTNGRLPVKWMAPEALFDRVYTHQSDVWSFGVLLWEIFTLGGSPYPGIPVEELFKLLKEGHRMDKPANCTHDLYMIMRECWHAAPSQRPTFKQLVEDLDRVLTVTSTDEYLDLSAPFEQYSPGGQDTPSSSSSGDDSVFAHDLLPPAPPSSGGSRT
Assay [5] deals with FGFR4 (Homo sapiens (Human), UniProt P22455). The method in brief:
as §1

The structures appear in SMILES notation. A value given as a limit tells only on which side of the number the result lay.

We go through 19 molecules from patent US20240109865A1, “INDAZOLE COMPOUNDS AS KINASE INHIBITORS” (TYRA BIOSCIENCES, INC., priority 2020, published 2024).

Sequence of FGFR3 (P22607 23-806): as the sequence (P22607 23-806 V555M) above, with M533V counted along it
Sequence of FGFR2 (P21802 22-821): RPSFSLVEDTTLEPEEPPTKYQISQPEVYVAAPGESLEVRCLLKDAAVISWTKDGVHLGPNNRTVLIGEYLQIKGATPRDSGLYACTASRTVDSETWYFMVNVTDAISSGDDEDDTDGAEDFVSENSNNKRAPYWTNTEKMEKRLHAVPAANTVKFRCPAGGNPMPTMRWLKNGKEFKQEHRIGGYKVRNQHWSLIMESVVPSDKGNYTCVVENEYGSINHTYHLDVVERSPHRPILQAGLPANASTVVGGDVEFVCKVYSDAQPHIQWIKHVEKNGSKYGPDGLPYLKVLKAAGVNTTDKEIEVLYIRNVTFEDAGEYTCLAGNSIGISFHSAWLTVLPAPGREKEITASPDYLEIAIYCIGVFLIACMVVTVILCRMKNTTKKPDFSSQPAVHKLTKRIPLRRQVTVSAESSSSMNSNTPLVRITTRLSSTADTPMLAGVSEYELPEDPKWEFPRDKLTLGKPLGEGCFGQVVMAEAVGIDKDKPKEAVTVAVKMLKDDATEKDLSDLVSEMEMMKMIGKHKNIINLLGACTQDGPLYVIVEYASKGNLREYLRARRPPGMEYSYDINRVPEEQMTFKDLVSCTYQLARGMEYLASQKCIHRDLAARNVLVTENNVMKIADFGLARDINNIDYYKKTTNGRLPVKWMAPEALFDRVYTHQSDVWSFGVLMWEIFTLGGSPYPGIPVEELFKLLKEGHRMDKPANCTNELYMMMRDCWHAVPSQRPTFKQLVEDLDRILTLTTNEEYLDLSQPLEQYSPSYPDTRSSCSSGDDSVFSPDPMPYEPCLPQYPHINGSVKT
Sequence of FGFR4 (P22455 22-802): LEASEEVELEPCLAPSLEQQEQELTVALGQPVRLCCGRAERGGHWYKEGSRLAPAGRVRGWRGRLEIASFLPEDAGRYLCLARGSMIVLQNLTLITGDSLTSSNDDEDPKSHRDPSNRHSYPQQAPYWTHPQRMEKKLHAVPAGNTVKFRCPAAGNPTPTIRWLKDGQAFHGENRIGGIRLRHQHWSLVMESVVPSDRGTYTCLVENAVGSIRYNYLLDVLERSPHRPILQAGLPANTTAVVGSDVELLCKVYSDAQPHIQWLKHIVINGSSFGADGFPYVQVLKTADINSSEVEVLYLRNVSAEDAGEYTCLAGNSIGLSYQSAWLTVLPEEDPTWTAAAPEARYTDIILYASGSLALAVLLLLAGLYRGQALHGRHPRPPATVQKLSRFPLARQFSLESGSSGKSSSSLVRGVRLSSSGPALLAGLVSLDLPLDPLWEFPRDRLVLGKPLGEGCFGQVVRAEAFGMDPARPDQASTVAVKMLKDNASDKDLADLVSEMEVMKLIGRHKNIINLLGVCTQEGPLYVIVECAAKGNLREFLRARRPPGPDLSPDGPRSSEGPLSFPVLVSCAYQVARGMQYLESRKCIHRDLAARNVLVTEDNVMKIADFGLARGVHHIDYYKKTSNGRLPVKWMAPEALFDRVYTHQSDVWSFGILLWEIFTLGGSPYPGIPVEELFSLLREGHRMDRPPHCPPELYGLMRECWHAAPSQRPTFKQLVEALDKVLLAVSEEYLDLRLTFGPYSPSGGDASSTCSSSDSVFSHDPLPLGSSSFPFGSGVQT
Sequence of FGFR1 (P11362 22-822): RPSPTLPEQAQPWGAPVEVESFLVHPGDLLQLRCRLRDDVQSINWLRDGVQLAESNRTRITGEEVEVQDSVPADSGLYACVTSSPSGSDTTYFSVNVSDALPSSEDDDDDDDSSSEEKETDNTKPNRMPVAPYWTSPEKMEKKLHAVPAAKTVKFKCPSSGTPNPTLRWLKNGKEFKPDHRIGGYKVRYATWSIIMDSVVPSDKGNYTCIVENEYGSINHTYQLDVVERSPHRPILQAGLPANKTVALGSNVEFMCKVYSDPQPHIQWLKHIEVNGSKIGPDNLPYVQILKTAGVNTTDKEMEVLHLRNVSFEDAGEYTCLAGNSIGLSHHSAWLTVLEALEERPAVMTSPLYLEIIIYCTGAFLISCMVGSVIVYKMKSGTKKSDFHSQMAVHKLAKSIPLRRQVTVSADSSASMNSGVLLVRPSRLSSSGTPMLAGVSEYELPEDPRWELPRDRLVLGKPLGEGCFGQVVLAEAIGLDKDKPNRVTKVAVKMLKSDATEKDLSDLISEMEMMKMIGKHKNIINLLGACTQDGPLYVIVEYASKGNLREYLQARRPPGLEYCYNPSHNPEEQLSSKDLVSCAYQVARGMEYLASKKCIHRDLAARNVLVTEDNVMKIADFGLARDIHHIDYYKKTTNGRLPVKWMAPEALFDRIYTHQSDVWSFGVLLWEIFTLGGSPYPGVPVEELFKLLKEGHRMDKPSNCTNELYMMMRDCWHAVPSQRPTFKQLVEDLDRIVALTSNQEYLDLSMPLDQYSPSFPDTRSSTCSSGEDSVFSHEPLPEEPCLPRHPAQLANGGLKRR

The Kd is the concentration at which binding is half-saturated. Read a high Kd as a looser complex. As for `Cc1ncc(Cl)c([C@@H](C)Oc2cc3c(-c4cnc(N5CCC5)c(F)c4)n[nH]c3cc2Cl)c1Cl` [Example 274, 3-[6-(azetidin-1-yl)-5-fluoro-3-pyridyl]-6-chloro-5-[(1R)-1-(3,5-dichloro-2-methyl-4-pyridyl)ethoxy]-1H-indazole], the Kd fell in the range of 100 to 300 nM in assay [1]; 100 to 300 nM in assay [2]; 20 to 100 nM in assay [3]; 1 to 20 nM in assay [4]; 20 to 100 nM in assay [5].

Consider `CNC1(C)CN(c2ncc(-c3n[nH]c4cc(Cl)c(O[C@H](C)c5c(Cl)cnc(C)c5Cl)cc34)cc2F)C1` [Example 275, 1-[5-[6-chloro-5-[(1R)-1-(3,5-dichloro-2-methyl-4-pyridyl)ethoxy]-1H-indazol-3-yl]-3-fluoro-2-pyridyl]-N,3-dimethyl-azetidin-3-amine], for which the Kd in assay [1] lay in the range of 1 to 20 nM; in assay [2] it was 20 to 100 nM; in assay [3] it was 1 to 20 nM; in assay [4] it was 1 to 20 nM; in assay [5], 1 to 20 nM.

As to `C[C@H](Oc1ccc2[nH]nc(-c3cnc(N4CCC4)c(C#N)c3)c2c1)c1c(Cl)cnc(F)c1Cl` [Example 283, (S)-2-(azetidin-1-yl)-5-(5-(1-(3,5-dichloro-2-fluoropyridin-4-yl)ethoxy)-1H-indazol-3-yl)nicotinonitrile], the Kd in assay [1], in assay [2], in assay [3], in assay [4] and in assay [5] was above 300 nM each time.

In the case of `C[C@@H](Oc1ccc2[nH]nc(-c3cnc(N4CC[C@@H](O)C4)c(C#N)c3)c2c1)c1c(Cl)cnc(F)c1Cl` [Example 284, 5-(5-((R)-1-(3,5-dichloro-2-fluoropyridin-4-yl)ethoxy)-1H-indazol-3-yl)-2-((R)-3-hydroxypyrrolidin-1-yl)nicotinonitrile], the Kd in assay [1] is above 300 nM; in assay [2], above 300 nM; in assay [3] it was 100 to 300 nM; in assay [4], 20 to 100 nM; in assay [5], 20 to 100 nM.

For `C[C@@H](Oc1ccc2[nH]nc(-c3cnc(N4CCCC4)c(C#N)c3)c2c1)c1c(Cl)cncc1Cl` [Example 285, 5-[5-[(1R)-1-(3,5-dichloro-4-pyridyl)ethoxy]-1H-indazol-3-yl]-2-pyrrolidin-1-yl-pyridine-3-carbonitrile], the Kd is above 300 nM in assay [1]; above 300 nM in assay [2]; 100 to 300 nM in assay [3]; 20 to 100 nM in assay [4]; 1 to 20 nM in assay [5].

In the case of `C[C@@H](Oc1ccc2[nH]nc(-c3cnc(N4CCC4)c(C#N)c3)c2c1)c1c(Cl)cnc(F)c1Cl` [Example 286, (R)-2-(azetidin-1-yl)-5-(5-(1-(3,5-dichloro-2-fluoropyridin-4-yl)ethoxy)-1H-indazol-3-yl)nicotinonitrile], the equilibrium dissociation constant (Kd) is above 300 nM in assay [1]; above 300 nM in assay [2]; above 300 nM in assay [3]; above 300 nM in assay [4]; 100 to 300 nM in assay [5].

As to `C[C@@H](Oc1ccc2[nH]nc(-c3cnc(N4CC(O)C4)c(C#N)c3)c2c1)c1c(Cl)cnc(F)c1Cl` [Example 287, (R)-5-(5-(1-(3,5-dichloro-2-fluoropyridin-4-yl)ethoxy)-1H-indazol-3-yl)-2-(3-hydroxyazetidin-1-yl)nicotinonitrile], the Kd in assay [1] was above 300 nM; in assay [2] it was above 300 nM; in assay [3], 100 to 300 nM; in assay [4], 100 to 300 nM; in assay [5], 20 to 100 nM.

For the molecule `C[C@@H](Oc1ccc2[nH]nc(-c3cnc(N4CC[C@H](O)C4)c(C#N)c3)c2c1)c1c(Cl)cnc(F)c1Cl` [Example 288, 5-(5-((R)-1-(3,5-dichloro-2-fluoropyridin-4-yl)ethoxy)-1H-indazol-3-yl)-2-((S)-3-hydroxypyrrolidin-1-yl)nicotinonitrile], the Kd in assay [1] was above 300 nM; in assay [2], above 300 nM; in assay [3] it was 20 to 100 nM; in assay [4] it was 20 to 100 nM; in assay [5], 1 to 20 nM.

On to `C[C@H](Oc1ccc2[nH]nc(-c3cnc(N4CC(O)C4)c(C#N)c3)c2c1)c1c(Cl)cnc(F)c1Cl` [Example 291, (S)-5-(5-(1-(3,5-dichloro-2-fluoropyridin-4-yl)ethoxy)-1H-indazol-3-yl)-2-(3-hydroxyazetidin-1-yl)nicotinonitrile], for which the Kd in assay [1], in assay [2], in assay [3], in assay [4] and in assay [5] was above 300 nM in each case.

`C[C@@H](Oc1ccc2[nH]nc(-c3cnc(N4CCCC4)c(C#N)c3)c2c1)c1c(Cl)cnc(F)c1Cl` [Example 292, (R)-5-(5-(1-(3,5-dichloro-2-fluoropyridin-4-yl)ethoxy)-1H-indazol-3-yl)-2-(pyrrolidin-1-yl)nicotinonitrile]: the dissociation constant Kd in assay [1] was above 300 nM; in assay [2] it was above 300 nM; in assay [3], above 300 nM; in assay [4], above 300 nM; in assay [5], 100 to 300 nM.

Consider `C[C@@H](Oc1ccc2[nH]nc(-c3cnc(N4CC[C@H](O)C4)c(C#N)c3)c2c1)c1c(Cl)cncc1Cl` [Example 293, 5-[5-[(1R)-1-(3,5-dichloro-4-pyridyl)ethoxy]-1H-indazol-3-yl]-2-[(3S)-3-hydroxypyrrolidin-1-yl]pyridine-3-carbonitrile], for which the Kd in assay [1] is 20 to 100 nM; in assay [2], 20 to 100 nM; in assay [3] it was 1 to 20 nM; in assay [4] it was 1 to 20 nM; in assay [5], 1 to 20 nM.

For `C[C@@H](Oc1ccc2[nH]nc(-c3cnc(N4CC[C@@H](C(C)(C)O)C4)c(C#N)c3)c2c1)c1c(Cl)cncc1Cl` [Example 294, 5-[5-[(1R)-1-(3,5-dichloro-4-pyridyl)ethoxy]-1H-indazol-3-yl]-2-[(3R)-3-(1-hydroxy-1-methyl-ethyl)pyrrolidin-1-yl]pyridine-3-carbonitrile], the Kd was above 300 nM in assay [1]; above 300 nM in assay [2]; 100 to 300 nM in assay [3]; 20 to 100 nM in assay [4]; 20 to 100 nM in assay [5].

`Cc1ncc(Cl)c([C@@H](C)Oc2ccc3[nH]nc(-c4cnc(N5CC(CC(F)(F)F)C5)c(C#N)c4)c3c2)c1Cl` [Example 295, 5-[5-[(1R)-1-(3,5-dichloro-2-methyl-4-pyridyl)ethoxy]-1H-indazol-3-yl]-2-[3-(2,2,2-trifluoroethyl)azetidin-1-yl]pyridine-3-carbonitrile]: the Kd is above 300 nM in assay [1]; above 300 nM in assay [2]; above 300 nM in assay [3]; 100 to 300 nM in assay [4]; 20 to 100 nM in assay [5].

On to `C[C@@H](Oc1ccc2[nH]nc(-c3cnc(N4CC(CC(F)(F)F)C4)c(C#N)c3)c2c1)c1c(Cl)cncc1Cl` [Example 296, 5-[5-[(1R)-1-(3,5-dichloro-4-pyridyl)ethoxy]-1H-indazol-3-yl]-2-[3-(2,2,2-trifluoroethyl)azetidin-1-yl]pyridine-3-carbonitrile], for which the Kd in assay [1] was above 300 nM; in assay [2], above 300 nM; in assay [3], above 300 nM; in assay [4] it was 100 to 300 nM; in assay [5], 20 to 100 nM.

On to `C[C@@H](Oc1ccc2[nH]nc(-c3cnc(N4CC[C@@H](O)C4)c(C#N)c3)c2c1)c1c(Cl)cncc1Cl` [Example 297, 5-[5-[(1R)-1-(3,5-dichloro-4-pyridyl)ethoxy]-1H-indazol-3-yl]-2-[(3R)-3-hydroxypyrrolidin-1-yl]pyridine-3-carbonitrile], for which the Kd in assay [1] lay within 20 to 100 nM; in assay [2], 100 to 300 nM; in assay [3], 1 to 20 nM; in assay [4] it was 1 to 20 nM; in assay [5], 1 to 20 nM.

For the molecule `C[C@@H](Oc1ccc2[nH]nc(-c3cnc(N4CCC(O)CC4)c(C#N)c3)c2c1)c1c(Cl)cncc1Cl` [Example 298, 5-[5-[(1R)-1-(3,5-dichloro-4-pyridyl)ethoxy]-1H-indazol-3-yl]-2-(4-hydroxy-1-piperidyl)pyridine-3-carbonitrile], the Kd in assay [1] lay in the range of 20 to 100 nM; in assay [2], 20 to 100 nM; in assay [3], 1 to 20 nM; in assay [4], 1 to 20 nM; in assay [5], 1 to 20 nM.

On to `Cc1cnnc(C)c1[C@@H](C)Oc1ccc2[nH]nc(-c3cnc(N4CC5CC(C4)N5)c(C#N)c3)c2c1` [Example 299, 2-(3,6-diazabicyclo[3.1.1]heptan-3-yl)-5-(5-((R)-1-(3,5-dimethylpyridazin-4-yl)ethoxy)-1H-indazol-3-yl)nicotinonitrile], for which the Kd in assay [1] lay within 20 to 100 nM; in assay [2], 20 to 100 nM; in assay [3] it was 1 to 20 nM; in assay [4], 1 to 20 nM; in assay [5], 1 to 20 nM.

As to `COc1cc(-c2n[nH]c3ccc(O[C@H](C)c4c(C)cnnc4C)cc23)cnc1N1CC2CC(C1)N2` [Example 300, 3-(5-(5-((R)-1-(3,5-dimethylpyridazin-4-yl)ethoxy)-1H-indazol-3-yl)-3-methoxypyridin-2-yl)-3,6-diazabicyclo[3.1.1]heptane], the equilibrium dissociation constant (Kd) in assay [1] was 100 to 300 nM; in assay [2], 100 to 300 nM; in assay [3], 20 to 100 nM; in assay [4], 20 to 100 nM; in assay [5] it was 20 to 100 nM.

Consider `Cc1cnnc(C)c1[C@@H](C)Oc1ccc2[nH]nc(-c3cnc(N4CC[C@H](C(C)(C)O)C4)c(C#N)c3)c2c1` [Example 301, 5-(5-((R)-1-(3,5-dimethylpyridazin-4-yl)ethoxy)-1H-indazol-3-yl)-2-((S)-3-(2-hydroxypropan-2-yl)pyrrolidin-1-yl)nicotinonitrile], for which the Kd in assay [1] was 100 to 300 nM; in assay [2] it was 100 to 300 nM; in assay [3], 20 to 100 nM; in assay [4], 1 to 20 nM; in assay [5], 1 to 20 nM.
